According to paper PMC10127257, “Engineering mutually orthogonal PylRS/tRNA pairs for dual encoding of functional histidine analogues” (Protein Science : A Publication of the Protein Society, 2023):

Target: T1, MaPylRS^IFGFF (Methanomethylophilus alvi, UniProt M9SC49, L125I/Y126F/M129G/V168F/Y206F)
T1 construct: gene MMALV_11280; C-terminal 6-His tag; pET29, E. coli BL21(DE3), Ni-NTA
Test: X-ray crystallography, […] Å
Format: binding
Conditions: MgCl2, pH 8; three Mg2+ ions; triethylene glycol in the amino acid pocket

T1 sequence (M9SC49 entry or part of it L125I/Y126F/M129G/V168F/Y206F): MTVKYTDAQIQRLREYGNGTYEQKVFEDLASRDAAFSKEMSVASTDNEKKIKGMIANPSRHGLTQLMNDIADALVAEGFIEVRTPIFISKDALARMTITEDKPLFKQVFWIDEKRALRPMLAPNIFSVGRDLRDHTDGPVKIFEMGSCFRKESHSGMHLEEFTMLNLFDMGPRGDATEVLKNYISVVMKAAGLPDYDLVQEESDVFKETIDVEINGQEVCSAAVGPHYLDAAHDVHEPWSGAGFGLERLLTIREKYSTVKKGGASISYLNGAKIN

Nc1ncnc2c1ncn2[C@@H]1O[C@H](COP(=O)(O)OP(=O)(O)NP(=O)(O)O)[C@@H](O)[C@H]1O [AMP-PNP]
X-ray crystallography, 1.8 Å: bound to the nonreactive ATP analogue adenylyl‐imidodiphosphate (AMP‐PNP, PDB: 8C49
